Assay results as given in publication PMC6887759, “The C-Type Lysozyme from the upper Gastrointestinal Tract of Opisthocomus hoatzin, the Stinkbird” (International Journal of Molecular Sciences, 2019).

Legend:
[1] = molecular target: T1, OhLys-kexB (E35A variant used for the ligand complexes) (Opisthocomus hoazin, UniProt Q91159, INS20KR/E54A); test: X-ray crystallography, co-crystallisation; assay type: biochemical; details: added as chitohexaose; hydrolysed by residual activity, so only sugars in -1 to -3 (weak -4) seen; intact hexamer not observed; mature numbering
T1 construct: gene LYZ; mature enzyme, 126 residues in wild type, secreted from Aspergillus oryzae; Lys-Arg inserted between Glu1 and Ile2 (uncleaved kexB site), N-terminus EKRIIPRCELV; monomer in asymmetric unit

[2] = molecular target: T1, OhLys-kexB (E35A variant used for the ligand complexes); test: X-ray crystallography, co-crystallisation; assay type: binding; details: density essentially identical to the chitohexaose co-crystal, subsites -1 to -3 (poorly ordered -4); not fully refined; mature numbering

T1 sequence (Q91159 other isoform, or with tags, fused parts or gaps INS20KR/E54A): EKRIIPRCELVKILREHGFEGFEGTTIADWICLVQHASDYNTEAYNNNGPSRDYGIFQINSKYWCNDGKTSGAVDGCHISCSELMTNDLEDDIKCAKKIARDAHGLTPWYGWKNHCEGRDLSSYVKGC

| Structure (SMILES) | X-ray crystallography, co-crystallisation [1] | X-ray crystallography, co-crystallisation [2] |
| --- | --- | --- |
| CC(=O)N[C@H]1[C@H](O[C@H]2[C@H](O)[C@@H](NC(C)=O)[C@H](O[C@H]3[C@H](O)[C@@H](NC(C)=O)C(O)O[C@@H]3CO)O[C@@H]2CO)O[C@H](CO)[C@@H](O[C@@H]2O[C@H](CO)[C@@H](O[C@@H]3O[C@H](CO)[C@@H](O[C@@H]4O[C@H](CO)[C@@H](O)[C@H](O)[C@H]4NC(C)=O)[C@H](O)[C@H]3NC(C)=O)[C@H](O)[C@H]2NC(C)=O)[C@@H]1O (some centres unmarked) [chitohexaose] | hydrolyse; at the high protein concentrations of a prolonged crystallization, the chitohexaose substrate | – |
| CC(=O)N[C@H]1[C@H](O[C@H]2[C@H](O)[C@@H](NC(C)=O)C(O)O[C@@H]2CO)O[C@H](CO)[C@@H](O[C@@H]2O[C@H](CO)[C@@H](O[C@@H]3O[C@H](CO)[C@@H](O)[C@H](O)[C@H]3NC(C)=O)[C@H](O)[C@H]2NC(C)=O)[C@@H]1O (some centres unmarked) [chitotetraose] | – | The density for the chitotetraose ligand is essentially identical to this |
